Assay results: patent US10222368B2 (priority 2012, dated 2019)

Molecular target: T1, mu opiate receptor (MOR) (Rattus norvegicus, UniProt P33535)
T1 construct: from tissue; host or cells: striatal tissue (membrane preparation)
Assay: MOR agonist activity using [35S]GTPγS binding assay in striatal membranes
Type: biochemical
Conditions: for MOR agonist activity, [35S]GTPγS binding, FLNA-binding compound as agonist at 0.1 μM / MOR agonist activity, [35S]GTPγS binding, FLNA-binding compound as agonist at 1 μM: Series C-2; for MOR agonist activity, [35S]GTPγS binding, 1 μM + BFNA: 1 μM compound + 1 μM β-FNA (MOR antagonist)
Experimental: To assess the mu opiate receptor (MOR) agonist activity of positive compounds from the FLNA screening, compounds were tested in a [^35S]GTPγS binding assay using striatal membranes. […] This assay measures a functional consequence of receptor occupancy at one of the earliest receptor-mediated events. The assay permits for traditional pharmacological parameters of potency, efficacy and antagonist affinity, with the advantage that agonist measures are not subjected to amplification or other modulation that may occur when analyzing parameters further downstream of the receptor.
Thus, striatal tissue was homogenized in 10 volumes of ice cold 25 mM HEPES buffer, pH 7.4, which contained 1 mM EGTA, 100 mM sucrose, 50 μg/ml leupeptin, 0.04 mM PMSF, 2 μg/ml soybean trypsin inhibitor and 0.2% 2-mercaptoethanol. The homogenates were centrifuged at 800×g for 5 minutes and the supernatants were centrifuged at 49,000×g for 20 minutes.
The resultant striatal membrane preparation (200 μg) was admixed and maintained (incubated) at 30° C. for 5 minutes in reaction buffer as above that additionally contained 1 mM MgCl2 and 0.5 nM [^35S]GTPγS (0.1 μCi/assay, PerkinElmer Life and Analytical Sciences) in a total volume of 250 μl and continued for 5 minutes in the absence or presence of 0.1-10 μM of an assayed compound of interest. The reaction was terminated by dilution with 750 μl of ice-cold reaction buffer that contained 20 mM MgCl2 and 1 mM EGTA and immediate centrifugation at 16,000×g for 5 minutes.
Normal rabbit serum (1 μl) was added to 1 ml of lysate and incubated at 25° C. for 30 minutes. Nonspecific immune complexes were removed by incubation with 25 μl of protein A/G-conjugated agarose beads at 25° C. for 30 minutes followed by centrifugation at 5,000×g at 4° C. for 5 minutes. The supernatant was divided and separately incubated at 25° C. for 30 minutes with antibodies raised against Gαo proteins (1:1,000 dilutions).
The immunocomplexes so formed were collected by incubation at 25° C. for 30 minutes with 40 μl of agarose-conjugated protein A/G beads and centrifugation at 5,000×g at 4° C. for 5 minutes. The pellet was washed and suspended in buffer containing 50 mM Tris-HCl, pH 8.0, and 1% NP-40. The radioactivity in the suspension was determined by liquid scintillation spectrometry.

[1] = 0.1 μM compound, striatal membranes
[2] = 1 μM compound, striatal membranes
[3] = 1 μM compound, relative to DAMGO
[4] = Series C-1, 0.1 μM compound relative to DAMGO (0.1 μM)
[5] = 0.1 μM compound, relative to DAMGO

T1 sequence (P33535 whole entry): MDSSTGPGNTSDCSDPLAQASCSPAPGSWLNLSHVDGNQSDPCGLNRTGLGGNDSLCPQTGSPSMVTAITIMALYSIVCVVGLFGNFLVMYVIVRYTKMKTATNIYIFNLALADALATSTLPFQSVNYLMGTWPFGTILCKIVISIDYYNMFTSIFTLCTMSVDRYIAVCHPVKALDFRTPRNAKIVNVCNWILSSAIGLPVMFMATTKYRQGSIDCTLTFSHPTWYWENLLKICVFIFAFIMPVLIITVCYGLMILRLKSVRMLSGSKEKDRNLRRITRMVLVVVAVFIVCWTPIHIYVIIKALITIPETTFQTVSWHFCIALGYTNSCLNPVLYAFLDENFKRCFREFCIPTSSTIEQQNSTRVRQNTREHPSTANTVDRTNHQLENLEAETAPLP

SMILES	MOR agonist activity, [35S]GTPγS binding, FLNA-binding compound as agonist at 0.1 μM [1]	MOR agonist activity, [35S]GTPγS binding, 1 μM + BFNA (striatal membranes)	MOR agonist activity, [35S]GTPγS binding, FLNA-binding compound as agonist at 1 μM [2]	further results
CC(=O)c1ccc(S(=O)(=O)N2CC(CN(C)C)OC23CCN(C)CC3)cc1 (stereo not shown) [Compound C0108M]	205.6%	76.9%	258.5%	–
COc1ccc(S(=O)(=O)N2CCOC23CCN(C)CC3)cc1 [Compound C0088M]	276.3%	177.1%	355.3%	–
CCOC(=O)CN1CCC2(CC1)OCCN2S(=O)(=O)c1ccc(C(C)=O)cc1 [Compound C0099M]	157.2%	114.7%	195.7%	% DAMGO (1 μM) [3]: 88.0%
O=C1CN(Cc2ccccc2)C2(CCNCC2)N1 [Compound C0115M]	177.2%	118.4%	226.8%	–
Cc1cccc(S(=O)(=O)N2CCC3(CC2)OCCN3S(=O)(=O)c2cccc(C)c2)c1 [Compound C0014]	–	–	–	% DAMGO (0.1 μM) [4]: 82.0%
CCCCc1ccc(S(=O)(=O)N2CCC3(CC2)OCCN3S(=O)(=O)c2ccc(CCCC)cc2)cc1 [Compound C0030]	–	–	–	% DAMGO (0.1 μM) [4]: 96.0%; % DAMGO (1 μM) (Series C-1, 1 μM compound relative to DAMGO (1 μM)): 98.0%
CC(=O)c1ccc(S(=O)(=O)N2CCOC23CCN(CC(=O)O)CC3)cc1 [Compound C0100M]	173.6%	195.6%	245.9%	–
CCCCN1CCC2(CC1)OCCN2S(=O)(=O)c1ccc(OC)cc1 [Compound C0102M]	131.8%	150.4%	272.0%	–
N#Cc1ccc(S(=O)(=O)N2CCC3(CC2)OCCN3S(=O)(=O)c2ccc(C#N)cc2)cc1 [Compound C0008]	–	–	–	% DAMGO + BFNA (Series C-1, 1 μM compound + BFNA relative to DAMGO + BFNA): 4.4%
COc1ccc(S(=O)(=O)N2CCOC23CCN(C(=O)OC(C)(C)C)CC3)cc1 [Compound C0043]	175.4%	83.3%	242.6%	–
COc1ccc(S(=O)(=O)N2CCOC23CCN(C(C)C)CC3)cc1 [Compound C0133M]	139.4%	72.4%	214.8%	–
CC(=O)c1ccc(S(=O)(=O)N2CCC3(CC2)NC(=O)CO3)cc1 [Compound C0087M]	262.8%	142.5%	329.6%	% DAMGO (0.1 μM) [5]: 138.9%; % DAMGO + BFNA (1 μM compound + BFNA, relative to DAMGO + BFNA): 293.8%; % DAMGO (1 μM) [3]: 132.8%
COc1ccc(S(=O)(=O)N2CCSC23CCNCC3)cc1 [S-C0027]	156.2%	56.2%	286.8%	–
CC(=O)c1ccc(C(=O)N2CCC3(CC2)OCCN3C(=O)c2ccc(C(C)=O)cc2)cc1 [Compound C0054]	–	–	–	% DAMGO (0.1 μM) [4]: 47.0%
COc1ccc(S(=O)(=O)N2CCOC23CCN(CC2CC2)CC3)cc1 [Compound C0090M]	237.0%	41.0%	341.0%	–
CCc1ccc(S(=O)(=O)N2CCOC23CCN(CC2CC2)CC3)cc1 [Compound C0135M]	161.3%	113.3%	310.1%	–
COc1ccc(NC(=O)N2CCC3(CC2)NCCO3)cc1 [Compound C0151M-2]	346.8%	212.8%	397.6%	–
O=C1CN(Cc2ccccc2)C2(CCN(CC3CC3)CC2)N1 [Compound C0125M]	168.6%	159.7%	195.2%	–
CC(=O)c1ccc(S(=O)(=O)N2CCOC23CCNCC3)cc1 [Compound C0046]	286.2%	156.8%	492.9%	–
CC(=O)c1ccc(S(=O)(=O)N2CCOC23CCN(C)CC3)cc1 [Compound C0093M]	140.0%	44.0%	211.8%	–
CC(=O)Nc1ccc(S(=O)(=O)N2CCC3(CC2)OCCN3S(=O)(=O)c2ccc(NC(C)=O)cc2)cc1 [Compound C0013]	–	–	–	% DAMGO (0.1 μM) [4]: 91.0%
COc1cccc(CC(=O)CC2c3c(cc4c(c3OC)OCO4)CC[N+]2(C)C)c1OC.[I-] (stereo not shown) [Compound B0038]	–	–	–	MOR agonist activity, [35S]GTPγS binding, at 1 μM compound (Series B, 1 μM compound, [35S]GTPγS binding to Gαo, striatal membranes): 205.3%
COc1ccc(S(=O)(=O)N2CCC3(CC2)NCCO3)cc1 [Compound C0026]	207.2%	21.2%	288.4%	–
CCN1CCC2(CC1)OCCN2S(=O)(=O)c1ccc(OC)cc1 [Compound C0089M]	234.5%	81.9%	295.3%	–
CS(=O)(=O)c1ccc(S(=O)(=O)N2CCOC23CCNCC3)cc1 [Compound C0116M]	258.4%	152.0%	302.8%	–
O=C1CN(C2CCc3ccccc3C2)C2(CCN(S(=O)(=O)c3ccccc3)CC2)N1 (stereo not shown) [C0136M (P5)]	176.8%	74.5%	237.3%	–
O=C1CN(Cc2ccccc2)C2(CCN(C3CCCCC3)CC2)N1 [C0137M(P7)]	180.8%	55.8%	193.8%	–
CC(=O)c1ccc(S(=O)(=O)N2CCC3(CC2)OCCN3S(C)(=O)=O)cc1 [Compound C0056]	98.6%	86.3%	193.4%	% DAMGO (0.1 μM) [5]: 68.0%; % DAMGO (1 μM) [3]: 83.0%
